Results as given in patent US20230220001A1, “METHOD FOR SYNTHESIS OF THIOETHER-[…]” ([…] RESEARCH GMBH, priority 2020, published 2023).
Starred links: 1 amine or outer side, 2 acyl side, 3 side chain; linkers in the order of their positions; H or OH if unused. Positions of bridges follow the written chain, without caps; N, C: chain ends. Non-standard residues stand in square brackets, D forms with d. Residues, ends and D or L forms follow the SMILES beside them. Trp(2-yl) = O=C([C@H](Cc1c([*:3])[nH]c2ccccc12)N[*:1])[*:2]; Ile(4R-OH,5-OH) = C[C@H]([C@H](N)C(=O)O)[C@@H](O)CO; Pro(4,4-F2) = O=C(O)[C@@H]1CC(F)(F)CN1; Hyp = O=C(O)[C@@H]1C[C@@H](O)CN1; Tle = CC(C)(C)[C@H](N)C(=O)O; Aze = O=C(O)[C@@H]1CCN1; Ac3c = NC1(C(=O)O)CC1; Aib = CC(C)(N)C(=O)O; Sar = CNCC(=O)O

Tests used:
RNA Polymerase II = biological target: T1, RNA Polymerase II (Homo sapiens, UniProt P24928); assay: RNA Polymerase II assay (HeLaScribe nuclear extract in vitro transcription system, RT-PCR quantification of mRNA); type: biochemical; conditions: for residual RNAP II activity at highest concentration tested: highest concentration tested (range up to 1×10^−6 M)
T1 construct: HeLaScribe® Nuclear extract in vitro transcription system (Promega, #E3092); host or cells: HeLa nuclear extract (purchased)
Method: (§1) Cytotoxicity of compounds of the invention was assessed using an RNA Polymerase II inhibition assay and by assessing cytotoxicity in a cell viability assay on HEK cells and HEK-OATP1 B3 cells, the results of which are depicted in Table 6.
The in vitro RNA Pol II assay was done using a HeLaScribe® Nuclear extract in vitro transcription system (Promega, #E3092) was used to compare the inhibitory effect of amanitin analogues on RNA Pol at seven concentrations from 6.4×10^−11 M to 1×10^−6 M (serial 1:5 dilutions). As positive control, template run-off transcripts from a CMV immediate early promoter were used (Promega, #E3092). Reverse transcription was followed by real time-PCR for the quantification of the mRNA product. RNA detection was performed using a QuantiFast Probe RT-PCR Plus Kit (Qiagen). The PCR product was monitored by determination of fluorescence on a Real Time PCR CFX Connect Real Time System (Bio-Rad Laboratories Inc.). α-amanitin, analogues and untreated control were each analyzed in triplicates. Negative control, positive control and no target control were analyzed in duplicates. The ACT method was used to calculate the inhibitory effect of the test item on transcription normalized to the untreated control.

[1] = Cell viability assay (BrdU incorporation) on HEK293 cells; type: cell-based; conditions: human, wildtype HEK293 cells, 96 h drug exposure, read-out: Cytotoxicity on HEK-293 cells EC50
Method: as §1
(§2) Cell Viability Assay (HEK and HEK-OATP1B3 Cells)
(§3) The in vitro toxicity of the inventive compounds was determined in Human embryonic kidney HEK293 cells and in HEK293-OATP1B3 cells that overexpress the organic anion-transporting polypeptide […] (OATP1B3) to assess whether OATP1 B3 mediates active transport of amanitin analogues into the cell. Wildtype HEK293 (ATCC, Manassas, Va.) and HEK293-OATP1 B3 cells (see: Pahl et al., Cytotoxic Payloads for Antibody-Drug Conjugates In: Amatoxins as RNA Polymerase II Inhibiting Antibody-Drug Conjugate (ADC) Payloads CHAPTER 19, The Royal Society of Chemistry 2019, ISBN: 978-1-78801-077-1, or e.g. Bowman et al. Drug Metab Dispos 48:18-24, January 2020) were incubated with compound 7f (α-amanitin) or the compounds as disclosed in Table 6. Cytotoxicity was determined by a BrdU assay. HEK293 and HEK-OATP1B3 cells were plated at 2.5×10^3 cells/well in a 1:1 mixture of Ham's F12 with DMEM containing 10% charcoal-stripped FCS onto poly-D-lysine-coated 96-well plates and grown for 24 hours. Subsequently, cells were incubated with amanitin derivatives at 8 different concentrations (1×10^−6 M to 1.28×10^−11 M, serial 1:5 dilutions). Following 96 h of drug exposure, cell viability was determined by a BrdU incorporation assay (Cell Proliferation ELISA, BrdU, Roche) and chemiluminescence was measured using a FLUOstar Optima plate reader (BMG LABtech). Data analysis was performed with GraphPad Prism 9.0 (GraphPad Software, Inc., La Jolla, Calif.) software to plot curve fits.

OATP1B3 = assay: Cell viability assay (BrdU incorporation) on HEK293-OATP1B3 cells overexpressing OATP1B3; type: cell-based; conditions: human, HEK293-OATP1B3 cells (overexpress OATP1B3), 96 h drug exposure, read-out: Cytotoxicity on HEK-OATP1B3 cells EC50
Method: as §1, §2, §3

[2] = slow acting toxin; T. Wieland 1986; cited from earlier work

| SMILES | IC50 (RNA Polymerase II) [nM] | EC50 at 96 h [1] [nM] | EC50 at 96 h (OATP1B3) [nM] | LD50 [2] [mg/kg] | residual RNAP II activity at highest concentration tested (RNA Polymerase II) [%] |
| --- | --- | --- | --- | --- | --- |
| CC[C@H](C)[C@@H]1NC(=O)CNC(=O)[C@@H]2Cc3c([nH]c4ccccc34)SC[C@H](NC(=O)CNC1=O)C(=O)N[C@@H](CC(N)=O)C(=O)N1C[C@H](O)C[C@H]1C(=O)N[C@@H]([C@@H](C)[C@@H](O)CO)C(=O)N2 [Compound 7d] (cyclo(CN[Hyp][Ile(4R-OH,5-OH)][Trp(2-yl)]GIG); thioether 1-5) | 6.8 | 81 | 0.23 |  |  |
| CC[C@H](C)[C@@H]1NC(=O)CNC(=O)[C@@H]2Cc3c([nH]c4cc(O)ccc34)[S@+]([O-])C[C@H](NC(=O)CNC1=O)C(=O)N[C@@H](CC(N)=O)C(=O)N1C[C@H](O)C[C@H]1C(=O)N[C@@H]([C@@H](C)[C@@H](O)CO)C(=O)N2 [Compound 7f, Alpha-amanitin, reference compound] | 2.7 | 210 | 5.2 | 0.05 to 0.1 |  |
| CC[C@H](C)[C@@H]1NC(=O)CNC(=O)[C@@H]2Cc3c([nH]c4ccccc34)SC[C@H](NC(=O)[C@H]3CCCN3C1=O)C(=O)N[C@@H](CC(N)=O)C(=O)N1C[C@H](O)C[C@H]1C(=O)N[C@@H]([C@@H](C)[C@@H](O)CO)C(=O)N2 [Compound 7i] (cyclo(CN[Hyp][Ile(4R-OH,5-OH)][Trp(2-yl)]GI[dP]); thioether 1-5) | 12 | > 1000 | 210 |  | 20 |
| CC[C@H](C)[C@@H]1NC(=O)CNC(=O)[C@@H]2Cc3c([nH]c4ccccc34)SC[C@H](NC(=O)CN(C)C1=O)C(=O)N[C@@H](CC(N)=O)C(=O)N1C[C@H](O)C[C@H]1C(=O)N[C@@H]([C@@H](C)[C@@H](O)CO)C(=O)N2 [Compound 7l] (cyclo(CN[Hyp][Ile(4R-OH,5-OH)][Trp(2-yl)]GI[Sar]); thioether 1-5) | 15 | > 1000 | 29 |  | 10 |
| CC[C@H](C)[C@@H]1NC(=O)CNC(=O)[C@@H]2Cc3c([nH]c4ccccc34)SC[C@H](NC(=O)C(C)(C)NC1=O)C(=O)N[C@@H](CC(N)=O)C(=O)N1C[C@H](O)C[C@H]1C(=O)N[C@@H]([C@@H](C)[C@@H](O)CO)C(=O)N2 [Compound 7m] (cyclo([Aib]CN[Hyp][Ile(4R-OH,5-OH)][Trp(2-yl)]GI); thioether 2-6) | 71 | > 1000 | 120 |  | 15 |
| CC[C@H](C)[C@@H]1NC(=O)CNC(=O)[C@@H]2Cc3c([nH]c4ccccc34)SC[C@H](NC(=O)CNC1=O)C(=O)N[C@@H](CC(N)=O)C(=O)N1CC[C@H]1C(=O)N[C@@H]([C@@H](C)[C@@H](O)CO)C(=O)N2 [Compound 7n] (cyclo([Aze][Ile(4R-OH,5-OH)][Trp(2-yl)]GIGCN); thioether 3-7) | 160 | > 1000 | > 100 |  | 40 |
| CC[C@H](C)[C@@H]1NC(=O)CNC(=O)[C@@H]2Cc3c([nH]c4ccccc34)SC[C@H](NC(=O)[C@@H](C)NC1=O)C(=O)N[C@@H](CC(N)=O)C(=O)N1C[C@H](O)C[C@H]1C(=O)N[C@@H]([C@@H](C)[C@@H](O)CO)C(=O)N2 [Compound 7o] (cyclo(CN[Hyp][Ile(4R-OH,5-OH)][Trp(2-yl)]GI[dA]); thioether 1-5) | 1.4 | > 1000 | 28 |  |  |
| C[C@H]([C@@H]1NC(=O)[C@@H]2C[C@@H](O)CN2C(=O)[C@H](CC(N)=O)NC(=O)[C@@H]2CSc3[nH]c4ccccc4c3C[C@H](NC1=O)C(=O)NCC(=O)N[C@@H](C(C)(C)C)C(=O)NCC(=O)N2)[C@@H](O)CO [Compound 7p] (cyclo(CN[Hyp][Ile(4R-OH,5-OH)][Trp(2-yl)]G[Tle]G); thioether 1-5) | 25 | > 1000 | 16 |  |  |
| CC[C@H](C)[C@@H]1NC(=O)CNC(=O)[C@@H]2Cc3c([nH]c4ccccc34)SC[C@H](NC(=O)CNC1=O)C(=O)N[C@@H](CC(N)=O)C(=O)N1CC(F)(F)C[C@H]1C(=O)N[C@@H]([C@@H](C)[C@@H](O)CO)C(=O)N2 [Compound 7q] (cyclo(CN[Pro(4,4-F2)][Ile(4R-OH,5-OH)][Trp(2-yl)]GIG); thioether 1-5) | 110 | > 1000 | 49 |  | 10 |
| CC[C@H](C)[C@@H]1NC(=O)CNC(=O)[C@@H]2Cc3c([nH]c4ccccc34)SC[C@H](NC(=O)C3(CC3)NC1=O)C(=O)N[C@@H](CC(N)=O)C(=O)N1C[C@H](O)C[C@H]1C(=O)N[C@@H]([C@@H](C)[C@@H](O)CO)C(=O)N2 [Compound 7r] (cyclo([Ac3c]CN[Hyp][Ile(4R-OH,5-OH)][Trp(2-yl)]GI); thioether 2-6) | 26 | > 1000 | 10 |  |  |
